The target in one assay is ER (Homo sapiens (Human), UniProt P03372). In words: In-cell western blot analysis of relative ER percentage (Compounds B1-B278). The assay is classed as cell-based. To be noted: ER degradation, 16 hours, read-out: ICW DC50. The procedure:
In-cell western blot analysis. Cells are seeded in multi-well plates (e.g., at 40,000 or 10,000 cells/well). Diluted compounds at certain concentration are added (final 0.5% DMSO) and cells are incubated for […] (e.g., 16 hours). Formaldehyde (e.g., PBS:FA=9:1) is added and followed by washing with PBS. The cells are blocked with Licor blocking buffer (Li-Cor). The relative ER percentage in treated cells are obtained by comparing the values of treated wells to those in untreated and DMSO-treated wells as 100%.
In-cell western blot analysis. a. seed cells in black-sided/clear bottom 96- or 384-well plates at 40,000 or 10,000 cells/well, overnight; b. add diluted compounds (final 0.5% DMSO), 16 hours. 16 h later, remove medium, add 100 μL or 25 μL of 3.7-4.0% formaldehyde (PBS:FA=9:1), RT 20 min, no shaking; c. wash with PBS, and permeabilized with 100 μL or 25 μL/well of 1×PBS+0.1% Triton X-100 10 minutes; d. block with 100 μL or 25 μL Licor blocking buffer (Li-Cor), RT 1 h, moderate shaking; d. Add 100 μL or 25 μL of anti-ER (cs-8644, 1:500-1,000)+GAPDH(Millipore MAB374, 1:1000) in Block+0.05% Tween 20. RT 2 h, gentle shaking. Negative control: cells plus secondary antibodies (no primary antibodies); e. wash×4 with PBS +0.05-0.1% Tween 20, gentel shaking; f. anti-rabbit-680 and anti-mouse-800 (both 1:1000 in LiCor block +0.05% Tween20, RT 1 h, gentle shaking, no light. LI-COR: 0.2% to reduce background; g. wash×4 with PBS+0.05% Tween 20, gental shaking; h. add 100 μL or 25 μL of PBS to each well and read on CLX plate reader. The relative ER percentage in treated cells were obtained by comparing the values of treated wells to those in untreated and DMSO-treated wells as 100%.

Assay [1] can be described thus: Cell growth assay (WST-8) (Compounds B1-B278). To be noted: 96 h; T47D cell line; WST-8, 4 days; read-out: Cell Growth Inhibition in T47D cell line IC50. Type of assay: cell-based. The procedure: Cell Growth Assay. The cells are seeded at certain concentration (e.g., at 1500/well) in multi-well plates overnight. Cells are subsequently treated with the compounds. A certain period of time (e.g., 4 days) after the compound treatment, 10% WST-8 reagent is added to the culture medium and incubate under certain condiction (e.g., in a CO2 incubator at 37° C. for 2.5 hours). The absorbance is measured on each sample using a microplate reader at certain wavelength (e.g., 450 nm). The relative absorbance is calculated against the vehicle control from three individually repeats.
Cell Growth Assay. The cells were seeded at 1500/well in 96 well plates overnight. One day after the seeding, they were treated with indicated doses of compounds respectively. 4 days after the compound treatment, 10% WST-8 reagent was added to the culture medium and incubate in a CO2 incubator at 37° C. for 2.5 hours. Before reading, the plate was mixed gently on an orbital shaker for one minute to ensure homogeneous distribution of color. The absorbance was measured of each sample using a microplate reader at a wavelength of 450 nm. The relative absorbance was calculated against the vehicle control from three individually repeats.
(Tetrazolium dyes change colour on reduction, which living cells bring about.)

Some results are limits rather than exact numbers.

Chain of ER (P03372 whole entry): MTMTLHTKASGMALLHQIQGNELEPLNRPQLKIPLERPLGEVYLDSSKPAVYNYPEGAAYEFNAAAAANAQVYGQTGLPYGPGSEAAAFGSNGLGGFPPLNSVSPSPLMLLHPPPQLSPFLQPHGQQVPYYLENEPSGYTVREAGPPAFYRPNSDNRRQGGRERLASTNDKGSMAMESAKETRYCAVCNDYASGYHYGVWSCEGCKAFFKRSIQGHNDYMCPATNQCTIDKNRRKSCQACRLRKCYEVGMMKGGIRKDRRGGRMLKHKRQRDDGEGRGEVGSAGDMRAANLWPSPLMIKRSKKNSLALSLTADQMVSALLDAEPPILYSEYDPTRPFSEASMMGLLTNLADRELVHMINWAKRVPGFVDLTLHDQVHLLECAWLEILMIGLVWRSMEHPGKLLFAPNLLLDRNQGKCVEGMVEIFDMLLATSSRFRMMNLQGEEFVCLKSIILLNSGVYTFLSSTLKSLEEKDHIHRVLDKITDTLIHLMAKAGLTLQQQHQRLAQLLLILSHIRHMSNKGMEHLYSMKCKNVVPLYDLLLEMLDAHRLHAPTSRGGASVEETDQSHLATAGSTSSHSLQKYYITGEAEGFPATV

For orientation: DC50 means the concentration at which degradation of the target reaches its halfway point. A word on the IC50: it is the midpoint of a concentration-inhibition curve. Regarding `C[C@@H]1Cc2c([nH]c3ccccc23)[C@@H](c2cnc(N3CCC4(CC3)CC(CN3CCN5c6ccc7c(c6N(C)C[C@@H]5C3)CN(C3CCC(=O)NC3=O)C7=O)C4)nc2)N1CC(F)F` (stereo partly drawn) [Compound B126, 3-((S)-7-((7-(5-((1R,3R)-2-(2,2-difluoroethyl)-3-methyl-2,3,4,9-tetrahydro-1H-pyrido[3,4-b]indol-1-yl)pyrimidin-2-yl)-7-azaspiro[3.5]nonan-2-yl)methyl)-4-methyl-1-oxo-3,4,5,5a,6,7,8,9-octahydropyrazino[1,2-a]pyrrolo[3,4-f]quinoxalin-2(1H)-yl)piperidine-2,6-dione], the DC50 at ER lay in the range of 10 to 100 nM. For the same compound, the IC50 in assay [1] was more than 10 nM.
The like results for `C[C@@H]1Cc2c([nH]c3ccccc23)[C@@H](c2cnc(N3CCC(CN4CCC5(CCOc6c5ccc5c6CN(C6CCC(=O)NC6=O)C5=O)CC4)CC3)nc2)N1CC(F)F` (stereo partly drawn) [Compound B127, 3-(1-((1-(5-((1R,3R)-2-(2,2-difluoroethyl)-3-methyl-2,3,4,9-tetrahydro-1H-pyrido[3,4-b]indol-1-yl)pyrimidin-2-yl)piperidin-4-yl)methyl)-7′-oxo-2′,3′,7′,9′-tetrahydro-8′H-spiro[piperidine-4,4′-pyrano[2,3-e]isoindol]-8′-yl)piperidine-2,6-dione] were, in that order, 10 to 100 nM and 1 to 10 nM.
Taken in the same sequence, the figures for `COc1cc(N2CCC3(CCN(C(=O)CN4Cc5cc6c(cc5C4)C(=O)N(C4CCC(=O)NC4=O)C6=O)CC3)CC2)ccc1[C@@H]1c2[nH]c3ccccc3c2C[C@@H](C)N1CC(F)F` (stereo partly drawn) [Compound B128, 6-(2-(9-(4-((1R,3R)-2-(2,2-difluoroethyl)-3-methyl-2,3,4,9-tetrahydro-1H-pyrido[3,4-b]indol-1-yl)-3-methoxyphenyl)-3,9-diazaspiro[5.5]undecan-3-yl)-2-oxoethyl)-2-(2,6-dioxopiperidin-3-yl)-6,7-dihydropyrrolo[3,4-f]isoindole-1,3(2H,5H)-dione] were less than 10 nM and 1 to 10 nM.
Taken in the same sequence, the figures for `COc1cc(N2CC3(CCC(CN4CCC5(CC4)COc4c5ccc5c4CN(C4CCC(=O)NC4=O)C5=O)CC3)C2)ccc1[C@@H]1c2[nH]c3ccccc3c2C[C@@H](C)N1CC(F)F` (stereo partly drawn) [Compound B129, 3-(1′-((2-(4-((1R,3R)-2-(2,2-difluoroethyl)-3-methyl-2,3,4,9-tetrahydro-1H-pyrido[3,4-b]indol-1-yl)-3-methoxyphenyl)-2-azaspiro[3.5]nonan-7-yl)methyl)-6-oxo-6,8-dihydro-2H,7H-spiro[furo[2,3-e]isoindole-3,4′-piperidin]-7-yl)piperidine-2,6-dione] were 10 to 100 nM and less than 1 nM.
Take `COc1c2c(cc3c1CN(C1CCC(=O)NC1=O)C3=O)CN(CC(=O)N1CCC3(CC1)CCN(c1cc(F)c([C@@H]4c5[nH]c6ccccc6c5C[C@@H](C)N4CC(F)F)c(F)c1)CC3)C2` (stereo partly drawn) [Compound B130, 3-(6-(2-(9-(4-((1R,3R)-2-(2,2-difluoroethyl)-3-methyl-2,3,4,9-tetrahydro-1H-pyrido[3,4-b]indol-1-yl)-3,5-difluorophenyl)-3,9-diazaspiro[5.5]undecan-3-yl)-2-oxoethyl)-4-methoxy-1-oxo-3,5,6,7-tetrahydropyrrolo[3,4-f]isoindol-2(1H)-yl)piperidine-2,6-dione]: the DC50 at ER fell in the range of 10 to 100 nM. Moreover, the IC50 in assay [1] lay in the range of 1 to 10 nM.
The like results for `C[C@@H]1Cc2c([nH]c3ccccc23)[C@@H](c2cnc(N3CCC4(CC3)CC(CN3CCN5c6cc7c(cc6OC[C@@H]5C3)C(=O)N(C3CCC(=O)NC3=O)C7)C4)nc2)N1CC(F)F` (stereo partly drawn) [Compound B135, 3-((S)-3-((7-(5-((1R,3R)-2-(2,2-difluoroethyl)-3-methyl-2,3,4,9-tetrahydro-1H-pyrido[3,4-b]indol-1-yl)pyrimidin-2-yl)-7-azaspiro[3.5]nonan-2-yl)methyl)-8-oxo-1,2,3,4,4a,5,8,10-octahydro-9H-pyrazino[1′,2′:4,5][1,4]oxazino[2,3-f]isoindol-9-yl)piperidine-2,6-dione] were, in that order, less than 10 nM and 1 to 10 nM.
Taken in the same sequence, the figures for `C[C@@H]1Cc2c([nH]c3ccccc23)[C@@H](c2cnc(N3CCC4(CCC(CN5CCN6c7cc8c(cc7OC[C@@H]6C5)C(=O)N(C5CCC(=O)NC5=O)C8)CC4)CC3)nc2)N1CC(F)F` (stereo partly drawn) [Compound B136, 3-((S)-3-((3-(5-((1R,3R)-2-(2,2-difluoroethyl)-3-methyl-2,3,4,9-tetrahydro-1H-pyrido[3,4-b]indol-1-yl)pyrimidin-2-yl)-3-azaspiro[5.5]undecan-9-yl)methyl)-8-oxo-1,2,3,4,4a,5,8,10-octahydro-9H-pyrazino[1′,2′:4,5][1,4]oxazino[2,3-f]isoindol-9-yl)piperidine-2,6-dione] were 10 to 100 nM and more than 10 nM.
In the case of `C[C@@H]1Cc2c([nH]c3ccccc23)[C@@H](c2cnc(N3CCC4(CCC(CN5CCN6c7cc8c(cc7OC[C@@H]6C5)C(=O)N(C5CCC(=O)NC5=O)C8)CC4)CC3)nc2)N1CC(C)(C)F` (stereo partly drawn) [Compound B137, 3-((S)-3-((3-(5-((1R,3R)-2-(2-fluoro-2-methylpropyl)-3-methyl-2,3,4,9-tetrahydro-1H-pyrido[3,4-b]indol-1-yl)pyrimidin-2-yl)-3-azaspiro[5.5]undecan-9-yl)methyl)-8-oxo-1,2,3,4,4a,5,8,10-octahydro-9H-pyrazino[1′,2′:4,5][1,4]oxazino[2,3-f]isoindol-9-yl)piperidine-2,6-dione], the DC50 at ER was in the range of 10 to 100 nM. The IC50 in assay [1] is more than 10 nM.
Consider `C[C@@H]1Cc2c([nH]c3ccccc23)[C@@H](c2cnc(N3CCC4(CCC(N5CCN6c7cc8c(cc7OC[C@@H]6C5)C(=O)N(C5CCC(=O)NC5=O)C8)CC4)CC3)nc2)N1CC(F)F` (stereo partly drawn) [Compound B138, 3-((S)-3-(3-(5-((1R,3R)-2-(2,2-difluoroethyl)-3-methyl-2,3,4,9-tetrahydro-1H-pyrido[3,4-b]indol-1-yl)pyrimidin-2-yl)-3-azaspiro[5.5]undecan-9-yl)-8-oxo-1,2,3,4,4a,5,8,10-octahydro-9H-pyrazino[1′,2′:4,5][1,4]oxazino[2,3-f]isoindol-9-yl)piperidine-2,6-dione], for which, at ER, the DC50 lay in the range of 10 to 100 nM. Also, in assay [1], the IC50 is 1 to 10 nM.
The like results for `C[C@@H]1Cc2c([nH]c3ccccc23)[C@@H](c2cnc(N3CCC4(CCC(N5CCN6c7cc8c(cc7OC[C@@H]6C5)C(=O)N(C5CCC(=O)NC5=O)C8)CC4)CC3)nc2)N1CC(C)(C)F` (stereo partly drawn) [Compound B139, 3-((S)-3-(3-(5-((1R,3R)-2-(2-fluoro-2-methylpropyl)-3-methyl-2,3,4,9-tetrahydro-1H-pyrido[3,4-b]indol-1-yl)pyrimidin-2-yl)-3-azaspiro[5.5]undecan-9-yl)-8-oxo-1,2,3,4,4a,5,8,10-octahydro-9H-pyrazino[1′,2′:4,5][1,4]oxazino[2,3-f]isoindol-9-yl)piperidine-2,6-dione] were, in that order, less than 10 nM and 1 to 10 nM.
Consider `COc1cc(N2CCC3(CC2)CC(CN2CCC4(CC2)COc2c4ccc4c2CN(C2CCC(=O)NC2=O)C4=O)C3)ccc1[C@@H]1c2[nH]c3ccccc3c2C[C@@H](C)N1CC(F)F` (stereo partly drawn) [Compound B140, 3-(1′-((7-(4-((1R,3R)-2-(2,2-difluoroethyl)-3-methyl-2,3,4,9-tetrahydro-1H-pyrido[3,4-b]indol-1-yl)-3-methoxyphenyl)-7-azaspiro[3.5]nonan-2-yl)methyl)-6-oxo-6,8-dihydro-2H,7H-spiro[furo[2,3-e]isoindole-3,4′-piperidin]-7-yl)piperidine-2,6-dione], for which, on ER, the DC50 was less than 10 nM. Moreover, in assay [1], the IC50 is less than 1 nM.

(Values after US20260007681A1, “INDOLE DERIVATIVES AS ESTROGEN RECEPTOR DEGRADERS” (REGENTS OF THE UNIVERSITY OF MICHIGAN, priority 2022, published 2026).)
